Assay results: patent publication US20120214862A1, “MODULATION OF FACTOR 7 EXPRESSION” (ISIS Pharmaceuticals, Inc., priority 2009, published 2012)
In the oligonucleotide strings, read from the 5' end, every base follows the letter of its sugar. An asterisk marks phosphorothioate; unmarked linkages are phosphodiester. Other units and linkages are bracketed, terminal groups are in braces. A string of capitals states the bases alone. e = 2'-O-(2-methoxyethyl) (MOE); [5mC] = 5-methylcytosine; d = 2'-deoxy (DNA)

Legend:
human Factor 7 mRNA [1] = assay: Antisense inhibition of human Factor 7 mRNA in HepB3 cells, lipofectin, 50 nM, real-time RT-PCR; format: cell-based; settings: for % Inhibition (human Factor 7 mRNA): 50 nM, ~24 h
How it was run: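 4,000 cells/well; ~24 h exposure; RNA isolated; probe set RTS 2927; normalised to RIBOGREEN® total RNA; % inhibition vs untreated.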

human Factor 7 mRNA [2] = assay: Dose-dependent antisense inhibition of human Factor 7 in HepB3 cells, transfection with lipofectin; format: cell-based; settings: for percent inhibition of Factor 7 mRNA, 6.25 nM / percent inhibition of Factor 7 mRNA, 12.5 nM / percent inhibition of Factor 7 mRNA, 25.0 nM / percent inhibition of Factor 7 mRNA, 50.0 nM / percent inhibition of Factor 7 mRNA, 100.0 nM / percent inhibition of Factor 7 mRNA, 3.125 nM: HepB3, lipofectin, ~16 h; for percent inhibition of Factor 7 mRNA, relative to untreated control cells: lipofectin, HepB3 cells, 16 hours
Experimental: Cells were plated at a density of 4,000 cells per well and treated with lipofectin reagent with 3.125 nM, 6.25 nM, 12.5 nM, 25 nM, 50 nM, and 100 nM concentrations of antisense oligonucleotide, as indicated in Table 3. After a treatment period of approximately 16 hours, RNA was isolated from the cells and Factor 7 mRNA levels were measured by real-time RT-PCR, as described herein. Human Factor 7 primer probe set RTS 2927 (forward sequence: […], incorporated herein as SEQ ID NO: 164; reverse sequence: […], incorporated herein as SEQ ID NO: 165; probe sequence: TGGGTGGTCTCCGCGGCCX, incorporated herein as SEQ ID NO: 166) was used to measure mRNA levels. Factor 7 mRNA levels were adjusted according to total RNA content as measured by RIBOGREEN®. Results are presented as percent inhibition of Factor 7, relative to untreated control cells.
Cells were plated at a density of 4,000 cells per well and transfected using lipofectin reagent with 6.25 nM, 12.5 nM, 25.0 nM, 50.0 nM, and 100.0 nM concentrations of antisense oligonucleotide, as indicated in Table 7. After a treatment period of approximately 16 hours, RNA was isolated from the cells and Factor 7 mRNA levels were measured by real-time RT-PCR, as described herein. Human Factor 7 primer probe set RTS 2927 was used to measure mRNA levels. Factor 7 mRNA levels were adjusted according to total RNA content as measured by RIBOGREEN®. Results are presented as percent inhibition of Factor 7, relative to untreated control cells.
Cells were plated at a density of 4,000 cells per well and transfected using lipofectin reagent with 3.125 nM, 6.25 nM, 12.5 nM, 25 nM, 50 nM, and 100 nM concentrations of antisense oligonucleotide, as specified in Table 14. After a treatment period of approximately 16 hours, RNA was isolated from the cells and Factor 7 mRNA levels were measured by quantitative real-time PCR. Human Factor 7 primer probe set RTS 2927 was used to measure mRNA levels. Factor 7 mRNA levels were adjusted according to total RNA content, as measured by RIBOGREEN®. Results are presented as percent inhibition of Factor 7, relative to untreated control cells.

[3] = HepB3 cells, lipofectin, 50 nM antisense oligonucleotide, approximately 24 hours, primer probe set RTS 2927, relative to untreated control
[4] = HepB3 cells, gapmers targeted to nucleobases 14707 to 14732 of SEQ ID NO: 1 (Table 11)
[5] = Example 1, HepB3 cells, lipofectin, relative to untreated control cells
[6] = HepB3 cells, gapmers (5-10-5, 3-14-3, 2-13-5 MOE) targeted to nucleobases 4868 to 4899 of SEQ ID NO: 1

Row | Substance | % Inhibition of human Factor 7 mRNA levels (human Factor 7 mRNA [1]; [3]) [%] | percent inhibition of Factor 7 mRNA, 6.25 nM (human Factor 7 mRNA [2]; Example 5) [%] | percent inhibition of Factor 7 mRNA, 12.5 nM (human Factor 7 mRNA [2]; Example 5, 12.5 nM) [%] | percent inhibition of Factor 7 mRNA, 25.0 nM (human Factor 7 mRNA [2]; Example 5) [%] | percent inhibition of Factor 7 mRNA, 50.0 nM (human Factor 7 mRNA [2]; Example 5) [%] | percent inhibition of Factor 7 mRNA, 100.0 nM (human Factor 7 mRNA [2]; Example 5) [%] | % Inhibition (human Factor 7 mRNA) (human Factor 7 mRNA [1]; [5]) [%] | percent inhibition of Factor 7 mRNA, 3.125 nM (human Factor 7 mRNA [2]; Example 2, 3.125 nM) [%] | percent inhibition of Factor 7 mRNA, 6.25 nM (human Factor 7 mRNA [2]; Example 2) [%] | percent inhibition of Factor 7 mRNA, 12.5 nM (human Factor 7 mRNA [2]; Example 2, 12.5 nM) [%] | percent inhibition of Factor 7 mRNA, 25.0 nM (human Factor 7 mRNA [2]; Example 2) [%] | percent inhibition of Factor 7 mRNA, 50.0 nM (human Factor 7 mRNA [2]; Example 2) [%] | percent inhibition of Factor 7 mRNA, 100.0 nM (human Factor 7 mRNA [2]; Example 2) [%] | other results
1 | 416449 (antisense eT*eA*eG*eG*eT*dA*dT*dT*dT*dT*dT*d[5mC]*d[5mC]*dA*d[5mC]*eA*eT*eG*eG*eA) [compound 416449] | 68 | 19 | 33 | 45 | 65 | 85 | – | – | – | – | – | – | – | –
2 | 416477 (antisense e[5mC]*eA*eG*e[5mC]*e[5mC]*dT*dG*dA*dG*dG*d[5mC]*d[5mC]*dA*dG*d[5mC]*eA*eG*eA*eT*e[5mC]) [compound 416477] | 74 | 21 | 46 | 64 | 78 | 87 | – | – | – | – | – | – | – | % Inhibition of human Factor 7 mRNA levels (human Factor 7 mRNA [1]; [4]): 71%
3 | 407900 (antisense e[5mC]*e[5mC]*e[5mC]*e[5mC]*eA*d[5mC]*dA*dA*dT*dT*d[5mC]*dG*dG*d[5mC]*d[5mC]*eT*eT*eG*eG*eG) [compound 407900] | 78 | 18 | 36 | 61 | 82 | 91 | 91 | 52 | 58 | 80 | 87 | 94 | 91 | –
4 | 407594 (antisense e[5mC]*e[5mC]*eT*eG*e[5mC]*dA*dG*d[5mC]*d[5mC]*dA*dG*dG*d[5mC]*dA*dG*e[5mC]*e[5mC]*e[5mC]*eT*eG) [compound 407594] | – | – | – | – | – | – | 87 | 10 | 34 | 63 | 77 | 84 | 80 | –
5 | 407910 (antisense eA*eG*eT*e[5mC]*e[5mC]*dT*dT*dG*d[5mC]*dT*dG*d[5mC]*d[5mC]*dA*dT*e[5mC]*e[5mC]*eG*eA*eG) [compound 407910] | 72 | – | – | – | – | – | 86 | 31 | 44 | 69 | 68 | 82 | 89 | –
6 | 407606 (antisense e[5mC]*eT*eG*eG*eT*d[5mC]*d[5mC]*dT*dT*dG*d[5mC]*dA*dG*dG*dA*eG*e[5mC]*e[5mC]*e[5mC]*e[5mC]) [compound 407606] | 57 | – | – | – | – | – | 89 | 20 | 0 | 49 | 55 | 83 | 84 | –
7 | 416508 (antisense e[5mC]*eG*eA*eG*eT*dT*d[5mC]*dT*dG*d[5mC]*dA*dG*dG*dA*dG*e[5mC]*eG*eG*e[5mC]*e[5mC]) [compound 416508] | 67 | 42 | 51 | 71 | 79 | 89 | – | – | – | – | – | – | – | % Inhibition of human Factor 7 mRNA levels (human Factor 7 mRNA [1]; [6]): 67%
8 | 407643 (antisense e[5mC]*eA*e[5mC]*eA*e[5mC]*dA*dT*dG*dG*dA*dG*dT*d[5mC]*dA*dG*e[5mC]*eA*eT*e[5mC]*eG) [compound 407643] | 80 | 36 | 49 | 70 | 83 | 93 | 84 | 16 | 59 | 68 | 76 | 92 | 95 | % Inhibition (human Factor 7 mRNA) (human Factor 7 mRNA [1]; Example 6 microwalk, nucleobases 15098 to 15122 of SEQ ID NO: 1, HepB3, lipofectin): 69%
9 | 422294 (antisense eG*eA*dG*dT*dT*d[5mC]*dT*dG*d[5mC]*dA*dG*dG*dA*dG*d[5mC]*eG*eG*e[5mC]*e[5mC]*eT) [compound 422294] | – | – | – | – | – | – | – | – | – | – | – | – | – | % Inhibition of human Factor 7 mRNA levels (human Factor 7 mRNA [1]; [6]): 78%; percent inhibition of Factor 7 mRNA, relative to untreated control cells (human Factor 7 mRNA [2]; 3.125 nM): 9%; percent inhibition of Factor 7 mRNA, relative to untreated control cells (human Factor 7 mRNA [2]; 12.5 nM): 32%; percent inhibition of Factor 7 mRNA, relative to untreated control cells (human Factor 7 mRNA [2]; 25 nM): 61%; percent inhibition of Factor 7 mRNA, relative to untreated control cells (human Factor 7 mRNA [2]; 50 nM): 77%; percent inhibition of Factor 7 mRNA, relative to untreated control cells (human Factor 7 mRNA [2]; 100 nM): 84%; percent inhibition of Factor 7 mRNA, relative to untreated control cells (human Factor 7 mRNA [2]): 21%
10 | 407641 (antisense e[5mC]*e[5mC]*eT*eG*eA*dG*dG*d[5mC]*d[5mC]*dA*dG*d[5mC]*dA*dG*dA*eT*e[5mC]*eA*e[5mC]*eG) [compound 407641] | 73 | – | – | – | – | – | 94 | 53 | 53 | 71 | 84 | 88 | 89 | % Inhibition of human Factor 7 mRNA levels (human Factor 7 mRNA [1]; [4]): 68%
